Data taken from paper PMC9463526 (Journal of Pharmaceutical Analysis, 2022).
Like-named read-outs stand apart in the source and are kept apart here.

Experiments:
[1] = Equilibrium dialysis, fraction unbound in brain homogenate; format: in vitro ADME, human; details: pH 7.4; human brain homogenate spiked at 20 and 200 nM; 16 h equilibrium dialysis; read-out: Fraction unbound (fu), Brain
Procedure: (§1) Equilibrium dialysis was employed to measure the fraction unbound of analytes in plasma, brain, and brain tumor tissue homogenates using 96-well DispoEquilibrium Dialyzer plates with a 10 kDa cut-off regenerated cellulose membrane. Dialysis was performed using 180 μL of human plasma or tissue homogenate against an equal volume of PBS (pH 7.4) in a dual-plate rotator (Harvard Apparatus, Holliston, MA, USA). Equilibrium time was initially optimized by analyzing samples after 2, 4, 6, 8, 16, and 24 h of dialysis at concentrations of 20 and 200 nM in human plasma and brain homogenate. The dialysates were collected and processed as described in Sections 2.3.2 and 2.3.3. The recovery of analytes was calculated as the ratio of analyte concentration after dialysis (sum of concentrations found in PBS and matrix fractions) to the total concentration to ensure the reliability and reproducibility of the assay. The experiments were repeated at least three times, and each sample in triplicate and average fraction unbound values were determined.
(§2) The fraction unbound in plasma (fu, plasma) and tissue homogenate (fu, hom) was evaluated as the analyte concentration ratio of post-dialysis PBS (cu) to post-dialysis plasma (cp, Eq. (1)) or homogenate (chom, Eq. (2)).(1) fu,plasma =cu/cp (2) fu,hom =cu/chom
(§3) The fraction unbound in the actual tissue (fu, tissue) was obtained by incorporating the unbound fraction in the tissue homogenate (fu, hom) and the dilution factor (Df) into Eq. (3).(3) fu,tissue = fu,hom/[Df - (Df - 1)fu,hom]

[2] = rat; cited from earlier work
[3] = cited from earlier work
[4] = cited from earlier work; remark: listed apart in the source
[5] = Equilibrium dialysis, fraction unbound in plasma; format: in vitro ADME, human; details: pH 7.4, 16 h equilibrium dialysis
Procedure: as §1, §2
(§4) Unbound drug levels in the actual plasma and brain tumor tissue were measured using dialysis for 16 h to reach equilibrium. The mean of fraction unbound values determined in five patient samples was calculated.

[6] = mouse; cited from earlier work
[7] = Analyte stability in brain homogenate; format: physicochemical, human; details: for Freeze-thaw stability, Accuracy / Freeze-thaw stability, Difference: 3 cycles; for Freeze-thaw stability, Difference / Benchtop stability, Difference / Processed sample stability, Difference / Autosampler stability (5 °C), Difference / Long-term stability (−20 °C), Difference: vs freshly processed QC; for Benchtop stability, Accuracy / Benchtop stability, Difference: 6 h; for Processed sample stability, Accuracy / Processed sample stability, Difference: 22 h; for Autosampler stability (5 °C), Accuracy / Autosampler stability (5 °C), Difference: 96 h; for Long-term stability (−20 °C), Difference: 39 days
Procedure: The stability of the analytes was studied under various storage and processing conditions. […] Short- and long-term stability studies of all analytes were conducted in human blank plasma and brain homogenate under several storage conditions. Analyte stability in biological matrices was analyzed using freshly prepared calibration standards and QC samples. The percentage difference between the stability and freshly processed QC was also assessed. Re-injection reproducibility was evaluated within the sample stability period in the autosampler. Analytes were considered stable if the accuracy at each level was ±15.0% of the nominal value. Additionally, the difference from corresponding comparison QC samples must be within ±15.0%.

[8] = set-up: method as in investigational brochures; details: ref investigational brochures; cited from earlier work
[9] = Equilibrium dialysis, fraction unbound in patient brain tumor tissue; format: in vitro ADME; details: human, five patients, 16 h equilibrium dialysis
Procedure: as §1, §2, §3, §4
The validated bioanalytical method was employed to investigate analytes pharmacokinetics in the plasma, brain tumor, and CSF in GBM patients (ClinicalTrials.gov identifier: NCT04391595). The protocol was reviewed and approved by the Institutional Review Board of the Barrow Neurological Institute, St. Joseph's Hospital and Medical Center (Phoenix, AZ, USA). All patients enrolled in the trial provided written informed consent. […] Blood, CSF, and GBM tissue (including gadolinium-contrast enhancing and non-enhancing regions) samples were obtained intra-operatively from each patient on the […] on the planned operation day. Blood was centrifuged at 4 °C and 3,000 r/min for 10 min; plasma was subsequently collected. Brain tumors were resected 7–9 h after the last dose was administered. Once resected, the tissue samples were rinsed with PBS, paper dried, and freshly frozen in liquid nitrogen. The samples were then stored at −80 °C in a freezer for later analysis.

Compound: CCN1CCN(Cc2ccc(Nc3ncc(F)c(-c4cc(F)c5nc(C)n(C(C)C)c5c4)n3)nc2)CC1 [Abemaciclib]
- fraction unbound at 16 h [1]: 0.013
- fu, brain [2]: 0.0043
- fu, plasma (previously published) [3]: 0.027
- Distribution (LogD, pH7.4), experimentally measured (value in parenthesis) ([4]; pH 7.4): 2.70
- Lipophilicity, experimentally measured (value in parenthesis) ([4]; ref [12]): 3.36
- fraction unbound at 16 h ([5]; human, plasma of five GBM patients, read-out: Fraction unbound (fu), Plasma (patients)): 0.026
- fraction unbound at 16 h ([5]; pooled human plasma spiked at 20 and 200 nM, read-out: Fraction unbound (fu), Plasma (pooled)): 0.026
- fu, brain [6]: 0.0079
- Freeze-thaw stability, Accuracy ([7]; HQC 400.0 nM): 106.8%
- Freeze-thaw stability, Difference ([7]; HQC 400.0 nM): −3.2%
- Freeze-thaw stability, Accuracy ([7]; LQC 0.6 nM): 104.4%
- Freeze-thaw stability, Difference ([7]; LQC 0.6 nM): −5.7%
- Benchtop stability, Accuracy ([7]; HQC 400.0 nM): 97.3%
- Benchtop stability, Difference ([7]; HQC 400.0 nM): −3.7%
- Benchtop stability, Accuracy ([7]; LQC 0.6 nM): 108.3%
- Benchtop stability, Difference ([7]; LQC 0.6 nM): 6.7%
- Processed sample stability, Accuracy ([7]; HQC 400.0 nM): 99.6%
- Processed sample stability, Difference ([7]; HQC 400.0 nM): −1.4%
- Processed sample stability, Accuracy ([7]; LQC 0.6 nM): 104.5%
- Processed sample stability, Difference ([7]; LQC 0.6 nM): 3.0%
- Autosampler stability (5 °C), Accuracy ([7]; HQC 400.0 nM): 102.8%
- Autosampler stability (5 °C), Difference ([7]; HQC 400.0 nM): 3.3%
- Autosampler stability (5 °C), Accuracy ([7]; LQC 0.6 nM): 108.3%
- Autosampler stability (5 °C), Difference ([7]; LQC 0.6 nM): 13.8%
- Long-term stability (−20 °C), Difference ([7]; HQC 400.0 nM): −1.5%
- Long-term stability (−20 °C), Difference ([7]; LQC 0.6 nM): −6.9%
- pKa (strongest basic) [8]: 7.95
- fraction unbound at 16 h ([9]; pH 7.4, gadolinium contrast enhancing GBM region, read-out: Fraction unbound (fu), GBM (E)): 0.014
- fraction unbound at 16 h ([9]; pH 7.4, gadolinium contrast non-enhancing GBM region, read-out: Fraction unbound (fu), GBM (NE)): 0.011
